According to ChEMBL document CHEMBL5726465, “Therapeutic compounds” (2019):
pIC50: −log10 of the molar value.

molecular target: CREB-binding protein (Homo sapiens, UniProt Q92793); test: In Vitro Enzyme Inhibition Assay-CREBBP Inhibition: Determination of the IC50 for the CREBBP inhibitors disclosed herein was performed as follows: CREBBP was cloned and expressed in E. Coli as His-tag protein and purified by Nickel affinity and gel-filtration chromatography. The protein was further characterized as a single band with the correct molecular weight by SDS-PAGE. CREBBP binding and inhibition was assessed by monitoring the interaction of biotinylated H4-tetraacetyl peptide (AnaSpec, H4K5/8/12/16(Ac), biotin-labeled) with the target using the AlphaScreen technology (Perkin Elmer). In a 384-well ProxiPlate CREBBP (50 nM final) was combined with peptide (20 nM final) in 50 mM HEPES (pH 7.3), 10 mM NaCl, 0.25 mM TCEP, 0.1% (w/v) BSA, and 0.005% (w/v) Brij-35 either in the presence of DMSO (final 0.4% DMSO) or compound dilution series in DMSO. After 20-minute incubation at room temperature, Alpha streptavidin donor beads and Nickel Chelate acceptor beads were added to a final concentration of 5 μg/mL. After two hours of equilibration, plates were read on an Envision instrument and the IC50 was calculated using a four parameter non-linear curve fit.The ability of the compounds disclosed herein to inhibit CBP activity was quantified and the respective IC50 value was determined.
Sequence (Q92793 whole entry): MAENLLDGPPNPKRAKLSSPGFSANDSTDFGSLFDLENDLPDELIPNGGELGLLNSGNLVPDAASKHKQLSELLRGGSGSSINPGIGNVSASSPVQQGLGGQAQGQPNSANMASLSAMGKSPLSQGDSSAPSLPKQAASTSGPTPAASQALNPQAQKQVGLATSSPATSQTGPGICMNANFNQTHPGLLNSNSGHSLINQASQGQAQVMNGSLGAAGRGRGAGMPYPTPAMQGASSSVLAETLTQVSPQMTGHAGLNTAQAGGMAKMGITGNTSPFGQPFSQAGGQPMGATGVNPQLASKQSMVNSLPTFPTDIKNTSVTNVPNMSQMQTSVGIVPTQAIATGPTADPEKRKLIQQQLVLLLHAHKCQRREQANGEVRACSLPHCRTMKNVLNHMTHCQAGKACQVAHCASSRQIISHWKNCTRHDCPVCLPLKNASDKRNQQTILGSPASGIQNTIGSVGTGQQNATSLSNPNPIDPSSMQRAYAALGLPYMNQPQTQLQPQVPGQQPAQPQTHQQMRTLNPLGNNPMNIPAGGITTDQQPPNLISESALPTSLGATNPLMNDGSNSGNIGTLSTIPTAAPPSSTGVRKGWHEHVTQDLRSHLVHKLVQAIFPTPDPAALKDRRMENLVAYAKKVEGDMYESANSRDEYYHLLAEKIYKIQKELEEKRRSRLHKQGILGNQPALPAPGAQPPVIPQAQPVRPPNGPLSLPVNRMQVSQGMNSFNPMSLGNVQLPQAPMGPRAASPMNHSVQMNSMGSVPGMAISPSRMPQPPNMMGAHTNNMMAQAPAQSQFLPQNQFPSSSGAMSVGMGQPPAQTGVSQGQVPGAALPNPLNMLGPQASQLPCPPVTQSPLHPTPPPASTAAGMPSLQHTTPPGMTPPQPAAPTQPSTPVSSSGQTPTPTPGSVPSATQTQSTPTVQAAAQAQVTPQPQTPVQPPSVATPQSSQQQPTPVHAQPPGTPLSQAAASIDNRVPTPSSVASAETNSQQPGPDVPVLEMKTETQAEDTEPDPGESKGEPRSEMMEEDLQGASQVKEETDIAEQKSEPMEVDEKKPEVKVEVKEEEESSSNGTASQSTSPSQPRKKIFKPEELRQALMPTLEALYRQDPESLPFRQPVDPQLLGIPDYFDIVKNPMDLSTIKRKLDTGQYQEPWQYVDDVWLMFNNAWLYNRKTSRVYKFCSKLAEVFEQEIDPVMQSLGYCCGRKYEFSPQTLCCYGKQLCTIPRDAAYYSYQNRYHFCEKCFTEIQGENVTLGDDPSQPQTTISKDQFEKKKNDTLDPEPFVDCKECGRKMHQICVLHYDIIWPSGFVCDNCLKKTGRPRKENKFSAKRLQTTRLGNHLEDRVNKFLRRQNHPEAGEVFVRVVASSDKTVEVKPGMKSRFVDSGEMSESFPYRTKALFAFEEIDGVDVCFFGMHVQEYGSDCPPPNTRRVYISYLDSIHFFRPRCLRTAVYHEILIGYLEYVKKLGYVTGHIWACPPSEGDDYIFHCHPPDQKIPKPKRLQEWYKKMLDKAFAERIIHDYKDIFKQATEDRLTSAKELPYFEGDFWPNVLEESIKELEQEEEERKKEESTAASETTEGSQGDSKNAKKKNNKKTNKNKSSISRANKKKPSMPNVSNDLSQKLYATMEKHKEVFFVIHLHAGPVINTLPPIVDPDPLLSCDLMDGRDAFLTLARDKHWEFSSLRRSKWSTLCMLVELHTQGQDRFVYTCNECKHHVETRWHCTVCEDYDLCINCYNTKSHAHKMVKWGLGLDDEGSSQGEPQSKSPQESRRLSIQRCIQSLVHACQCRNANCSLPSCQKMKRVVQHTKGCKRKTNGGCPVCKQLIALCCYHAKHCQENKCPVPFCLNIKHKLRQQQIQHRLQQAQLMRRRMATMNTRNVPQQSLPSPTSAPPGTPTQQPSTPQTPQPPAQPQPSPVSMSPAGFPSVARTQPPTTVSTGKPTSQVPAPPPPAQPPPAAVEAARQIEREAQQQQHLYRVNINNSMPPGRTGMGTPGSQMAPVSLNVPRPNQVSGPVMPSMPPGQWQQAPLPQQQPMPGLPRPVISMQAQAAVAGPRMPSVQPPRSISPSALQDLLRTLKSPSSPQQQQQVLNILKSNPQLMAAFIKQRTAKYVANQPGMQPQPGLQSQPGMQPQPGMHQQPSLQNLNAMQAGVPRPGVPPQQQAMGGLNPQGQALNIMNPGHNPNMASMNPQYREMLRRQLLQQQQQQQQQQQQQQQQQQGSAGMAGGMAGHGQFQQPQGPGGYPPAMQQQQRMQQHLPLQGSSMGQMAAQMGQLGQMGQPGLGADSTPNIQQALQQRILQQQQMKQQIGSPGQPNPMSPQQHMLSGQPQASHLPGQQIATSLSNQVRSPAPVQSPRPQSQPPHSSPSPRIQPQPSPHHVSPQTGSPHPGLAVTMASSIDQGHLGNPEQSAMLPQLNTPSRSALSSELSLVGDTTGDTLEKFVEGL

pIC50, > 6.30:
Cc1cccc(Cl)c1Oc1nc(NS(=O)(=O)C(C)C)cc(-c2cc(Cl)c(=O)n(C)c2)n1
CCCCS(=O)(=O)Nc1nc(Oc2c(C)cccc2C)nc(-c2cc(C)c(=O)n(C)c2)n1
Cc1cccc(F)c1Oc1nc(NS(=O)(=O)CC2CC2)cc(-c2ccc(=O)n(C)c2)n1
CCNc1cc(-c2cc(C)c(=O)n(C)c2)nc(Oc2ccc(F)cc2F)n1
Cc1cccc(F)c1Oc1nc(NS(=O)(=O)CCC2CC2)cc(-c2ccc(=O)n(C)c2)n1
CCCCS(=O)(=O)Nc1cc(-c2cc(Cl)c(=O)n(C)c2)nc(Oc2c(C)cccc2Cl)n1
Cc1cccc(F)c1Oc1nc(NS(=O)(=O)CCC(F)(F)F)cc(-c2ccc(=O)n(C)c2)n1
